PMC11726150, “Pre‐ADMET studies of 5‐(3′,4′‐dihydroxyphenyl)‐γ‐valerolactone, the bioactive intestinal metabolite of proanthocyanidins” (Archiv Der Pharmazie, 2024)
Entries after “also recorded” stand apart in the source; their conditions may differ. Read-outs that look alike come from different tables or passages of the source.

Tests used:
MTT cell viability assay [1] = type: cell-based, canine; conditions: dog, Wt-MDCK cells, 1.5–50 µM, 6 h exposure, read-out: cells remaining viable
Method: (§1) The effect of test samples on cell viability was measured using an MTT assay. Briefly, exponentially growing 2 × 10^4 cells/200 μL were seeded in 96‐well plates and allowed to grow until reaching their differentiation state. Cells were treated with different concentrations of VL (50–1.6 µM) and positive control camptothecin (30–1 μM) serially diluted in serum‐free medium. After incubation, 10 μL of MTT dye (5 mg/mL stock in PBS) was added to each well, and plates were additionally incubated for 4 h. Further, media were aspirated, and cells were washed with 100 μL of phosphate buffer saline. The formazan blue crystals formed by viable cells were dissolved in 150 μL of DMSO, and the absorbance was measured at 580 nm on a Bio‐Tek, Synergy HT Multi‐Mode, plate reader. The % decrease in viability of sample‐treated cells was calculated compared with vehicle‐treated cells.^[ [46] ^]

PXR [2] = target: T1, PXR (Homo sapiens, UniProt O75469); type: cell-based; parameters: expressed in transfected cells; host or cells: LS174T cells, transient electroporation; conditions: LS174T cells, all concentrations tested (1.5–50 μM), 24 h
T1 sequence (O75469 1-434): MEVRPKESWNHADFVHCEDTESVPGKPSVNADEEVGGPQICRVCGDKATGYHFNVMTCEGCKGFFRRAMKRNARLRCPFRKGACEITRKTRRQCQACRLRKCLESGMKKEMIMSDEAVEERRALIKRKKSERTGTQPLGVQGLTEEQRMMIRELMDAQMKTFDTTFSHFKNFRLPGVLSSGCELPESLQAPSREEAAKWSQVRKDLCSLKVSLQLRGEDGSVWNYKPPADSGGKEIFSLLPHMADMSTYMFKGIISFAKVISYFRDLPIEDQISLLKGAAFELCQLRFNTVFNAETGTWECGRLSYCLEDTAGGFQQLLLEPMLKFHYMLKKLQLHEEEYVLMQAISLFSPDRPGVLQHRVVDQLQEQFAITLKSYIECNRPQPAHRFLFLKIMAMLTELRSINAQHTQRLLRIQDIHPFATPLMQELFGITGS
Method: (§2) The PXR activation potential of VL was determined in transiently transfected HepG2 and LS174T cells as described earlier.^[ [50] ^] In brief, 24‐h‐old cells having 70%−80% confluency were trypsinized and transfected with pSG5‐hPXR (25 μg) and PCR‐5 (25 μg) plasmid DNA by electroporation at 180 V (1 pulse for 70 ms). Cells were incubated at room temperature for 8 min and floating dead cells were carefully removed. Cells were seeded in 96‐well plates at a density of 50,000 cells/well. […] Following 24 h of incubation, the culture medium was aspirated and 40 μL of luciferase reagent (Promega Corporation) was added to each well. Luminescence was measured using a Spectramax M5 plate reader (Molecular Devices) and the fold increase in luciferase activity among sample‐treated cells was calculated in comparison with the vehicle‐treated (DMSO) cells.

PXR [3] = target: T1, PXR; type: cell-based; parameters: expressed in transfected cells; host or cells: HepG2 and LS174T cells, transient electroporation; conditions: HepG2 cells, all concentrations tested (1.5–50 μM), 24 h
Method: as §2

Caco2 cells = assay: MTT cell viability assay; type: cell-based, human; conditions: Caco2, 1.5–50 µM, up to 24 and 48 h
Method: as §1

MTT cell viability assay [4] = type: cell-based, human; conditions: human, Caco2 cells; Caco2, 1.5–50 µM, 6 h exposure; read-out: cells remaining viable
Method: as §1

HepG2 cells = assay: MTT cell viability assay; type: cell-based, human; conditions: HepG2, 1.5–50 µM, up to 24 and 48 h
Method: as §1

LS174T cells = assay: MTT cell viability assay; type: cell-based, human; conditions: 1.5–50 µM, up to 24 and 48 h
Method: as §1

[5] = Metabolic stability assay with human S9 liver fraction; type: in vitro ADME
Method: (§3) HLMs and S9 fractions were used to determine, respectively, phases I and II metabolism of VL. A mixture of the activating cofactors (NADP^+ and UDPGA) and enzymes (G6PO4 and G6PDH) were used to stimulate the metabolism; in the microsome assay UDPGA was not needed. The final concentrations of cofactors NADPH and UDPGA were 1 mM each, while for the enzymes G6PO4 and G6PDH were 10 mM and 2 U/mL, respectively. The phosphate buffer was prepared as a 100 mM solution, pH 7.4, containing 10 mM magnesium chloride in deionized water. Testosterone and 7‐hydroxycoumarin were used as positive controls for phases I and II metabolism, and stock reference solutions of controls and VL were prepared, respectively, at 5 mM and 10 mM concentration in DMSO, and then diluted to a final test concentration of 10 µM. S9 fraction or microsome, final concentration 1 mg/mL, were preincubated with a test compound for 5 min at 37°C in the phosphate buffer, pH 7.4, and then the reactions were initiated by adding the cofactor mixture. A negative control sample was prepared replacing the reaction enzymes with water in the presence of a reaction mixture and test compound VL. At time points 0, 10, 20, 30, 45, 60, 90, and 120 min, 100 µL aliquots of the sample mixture were removed and quenched by the addition of two volumes of ice‐cold 50:50 ACN:MeOH containing the internal standard (cinnamic acid‐d6, 300 ng/mL final concentration). The quenched samples were then stored at −80°C overnight and defrosted before analysis, sonicated for 10 min, and centrifuged at 14,000 rpm for 15 min at 4°C to sediment the precipitated proteins before injection onto ultra performance liquid chromatography‐mass/mass (UPLC‐MS/MS) for analysis. T ½ was calculated using the interpolating point method using the nonlinear fit option of GraphPad Prism 8, while intrinsic clearance CL'int (mL/min/kg) was calculated as written in Equation (4) and as reported previously:^[ [23] ^] (4) CL^′int=0.693×Dose/T½.

[6] = Metabolic stability assay with human liver microsomes; type: in vitro ADME
Method: as §3, with “At time points 0, 10, 20, 30, 45, 60, 90, and 120 min, 100 µL aliquots of the sample mixture were removed and quenched by the addition of two volumes of ice‐cold 50:50 ACN:MeOH containing the internal standard (cinnamic acid‐d6, 300 ng/mL final concentration). The quenched samples were then stored at −80°C overnight and defrosted before analysis, sonicated for 10 min, and centrifuged at 14,000 rpm for 15 min at 4°C to sediment the precipitated proteins before injection onto ultra performance liquid chromatography‐mass/mass (UPLC‐MS/MS) for analysis.” left out, “(4) CL^′int=0.693×Dose/T½.” left out

VL metabolized in the liver fraction ([5]; S9 liver fraction, 120 min): 70.83%
intrinsic clearance ([5]; human S9 fraction 1 mg/mL, 10 µM): 0.784 µM/min
half-life at 10 µM ([5]; liver S9 fraction, pH 7.4, human S9 fraction 1 mg/mL, 10 µM, NADPH + UDPGA, read-out: half‐life t ½): 8.72 min
stability under negative control experimental conditions ([5]; reaction enzymes replaced with water, data not shown): stable
half‐life t ½ ([6]; HLM 1 mg/mL, 10 µM): 23.084 min
half-life at 10 µM ([6]; human, liver microsomes, pH 7.4, HLM 1 mg/mL, read-out: half‐life t ½): 23.1 min
Structure (SMILES): O=C1CCC(Cc2ccc(O)c(O)c2)O1 (stereo not shown) [VL, 5‐(3′,4′‐dihydroxyphenyl)‐γ‐valerolactone]
viability at 6 h (MTT cell viability assay [1]): > 90%
PXR transcriptional activity, fold increase vs vehicle (PXR [2]): does not increase the PXR activity; also recorded: < twofold
PXR transcriptional activity, fold increase vs vehicle (PXR [3]): does not increase the PXR activity; also recorded: < twofold
effect on cell viability (Caco2 cells): no significant effect
viability at 6 h (MTT cell viability assay [4]): > 90%
effect on cell viability (HepG2 cells): no significant effect
effect on cell viability (LS174T cells): no significant effect
